Patent publication US10570155B2, “Imidazooxazole derivative having antitumor effect, and pharmaceutical composition including same” (KOREA INSTITUTE OF SCIENCE AND TECHNOLOGY, priority 2016, dated 2020)

How the values were obtained:
[1] = test system: A375; assay: NCI cancer cell line panel screening (SRB), melanoma cell line A375; assay type: cell-based; conditions: Homo sapiens, A-375, read-out: IC50 against melanoma cell line in vitro
Procedure: (§1) According to the standard protocol (http://dtp.nci.nih.gov/dtpstandard/dwindex/index.isp) of the US National Cancer Institute (NCI) (www.dtp.nci.nih.gov), screening of a cancer cell line panel was performed. Briefly, human cell lines were allowed to grow in an RPMI 1640 medium containing 5% FBS and 2 mM L-glutamine. For a general screening experiment, cells were inoculated in 96-well microtiter plates in 100 μl at a plating density ranging from 5000 cells/well to 40,000 cells/well depending on the doubling time of individual cell lines. After cell inoculation, the microtiter plates were incubated at 37° C., 5% CO2, 95% air, and 100% relative humidity for 24 hours prior to addition of test compounds. 24 hours later, two plates of each cell line were fixed in situ with trichloroacetic acid (TCA) to measure the cell population for each cell line at the time of test compound addition (Tz). Test compounds were solubilized in dimethyl sulfoxide at 400-fold the intended final maximum test concentration, and stored frozen prior to use. At the time of compound addition, an aliquot of frozen concentrate was thawed and diluted to twice the intended final maximum test concentration with a complete medium containing 50 μg/ml of gentamicin. Additional four concentration of 10-fold or ½ log serial dilutions were made to provide a total of five compound concentrations plus control. Aliquots of 100 μl of these different compound dilutions were added to appropriate microtiter wells already containing 100 μl of medium, resulting in the required final compound concentrations.
(§2) Following compound addition, the plates were incubated for additional 48 hours at 37° C., 5% CO2, 95% air, and 100% relative humidity. For adherent cells, the assay was terminated by the addition of cold TCA. Cells were fixed in situ by the gentle addition of 50 μl of cold 50% (w/v) TCA (final concentration, 10% TAC) and incubated at 4° C. for 60 minutes. The supernatant was discarded, and the plates were washed five times with tap water and air-dried. A sulforhodamine B (SRB) solution (100 μl) at 0.4% (w/v) in 1% acetic acid was added to each well, and plates were incubated at room temperature for 10 minutes. After staining, unbound dye was removed by washing five times with 1% acetic acid and the plates were air-dried. Bound stain was subsequently solubilized with 10 mM Trizma base, and the absorbance was read on an automated plate reader at a wavelength of 515 nm. For suspension cells, the methodology was the same except that the assay was terminated by fixing settled cells at the bottom of the wells by gently adding 50 μl of 80% TCA (final concentration, 16% TCA). Using the seven absorbance measurements [time zero (Tz), control growth (C), and test growth rate in the presence of compound at the five concentration levels (Ti)], the growth percentage was calculated at each of the compound concentration levels. Growth inhibition percentage was calculated as follows: [(Ti−Tz)/(C−Tz)]×100 for concentrations for which Ti>/=Tz [(Ti−Tz)/Tz]×100 for concentrations for which Ti<Tz.

[2] = target: B-RAF (Homo sapiens (Human), UniProt P15056); assay: Protein kinase enzymatic activity (Reaction Biology kinase hotspot, 33P-ATP); assay type: biochemical; conditions: read-out: Inhibitory effect against kinase activity, B-RAF (IC50)
Procedure: (§3) Reaction biology kinase hotspot service (http://www.reactionbiology.com) was used to measure IC50. In a final reaction volume of 25 μL, kinase (5 mU to 10 mU) was incubated with 25 mM Tris (pH 7.5), 0.02 mM EGTA, 0.66 mg/ml of myelin basic protein, 10 mM magnesium acetate, and [^33P-ATP] (specific activity of about 500 CPM/pmol, concentration as required). The reaction was initiated by addition of Mg-ATP mix. After incubation for 40 min at room temperature, the reaction was stopped by addition of 5 μl of a 3% phosphoric acid solution. 10 μL of the reaction was then spotted onto a P30 filtermat and washed three times for 5 minutes in 75 mM phosphoric acid and once in methanol prior to drying and scintillation counting.

[3] = target: C-RAF (Homo sapiens (Human), UniProt P04049, Y340D/Y341D); assay: as above; assay type: biochemical; conditions: read-out: Inhibitory effect against kinase activity, C-RAF (IC50)
Procedure: as §3

[4] = target: V600E-B-RAF (Homo sapiens (Human), UniProt P15056, V600E); assay: as above; assay type: biochemical; conditions: read-out: Inhibitory effect against kinase activity, V600E-B-RAF (IC50)
Procedure: as §3

[5] = test system: LOX IMVI; assay: NCI cancer cell line panel screening (SRB), melanoma cell line LOX IMVI; assay type: cell-based, human; conditions: Homo sapiens, read-out: IC50 against melanoma cell line in vitro
Procedure: as §1, with “Briefly, human cell lines were allowed to grow in an RPMI 1640 medium containing 5% FBS and 2 mM L-glutamine.” left out
as §2, with “Bound stain was subsequently solubilized with 10 mM Trizma base, and the absorbance was read on an automated plate reader at a wavelength of 515 nm.” left out

[6] = test system: M14; assay: NCI cancer cell line panel screening (SRB), melanoma cell line M14; assay type: cell-based; conditions: Homo sapiens, read-out: IC50 against melanoma cell line in vitro
Procedure: as §1, §2

[7] = test system: MDA-MB-435; assay: NCI cancer cell line panel screening (SRB), melanoma cell line MDA-MB-435; assay type: cell-based; conditions: Homo sapiens, read-out: IC50 against melanoma cell line in vitro
Procedure: as §1, §2

[8] = test system: SK-MEL-2; assay: NCI cancer cell line panel screening (SRB), melanoma cell line SK-MEL-2; assay type: cell-based, human; conditions: Homo sapiens, read-out: IC50 against melanoma cell line in vitro
Procedure: as §1, with “Briefly, human cell lines were allowed to grow in an RPMI 1640 medium containing 5% FBS and 2 mM L-glutamine.” left out
as §2, with “Bound stain was subsequently solubilized with 10 mM Trizma base, and the absorbance was read on an automated plate reader at a wavelength of 515 nm.” left out

[9] = test system: SK-MEL-28; assay: NCI cancer cell line panel screening (SRB), melanoma cell line SK-MEL-28; assay type: cell-based, human; conditions: Homo sapiens, read-out: IC50 against melanoma cell line in vitro
Procedure: as §1, with “Briefly, human cell lines were allowed to grow in an RPMI 1640 medium containing 5% FBS and 2 mM L-glutamine.” left out
as §2, with “Bound stain was subsequently solubilized with 10 mM Trizma base, and the absorbance was read on an automated plate reader at a wavelength of 515 nm.” left out

[10] = test system: SK-MEL-5; assay: NCI cancer cell line panel screening (SRB), melanoma cell line SK-MEL-5; assay type: cell-based, human; conditions: Homo sapiens, read-out: IC50 against melanoma cell line in vitro
Procedure: as §1, with “Briefly, human cell lines were allowed to grow in an RPMI 1640 medium containing 5% FBS and 2 mM L-glutamine.” left out
as §2, with “Bound stain was subsequently solubilized with 10 mM Trizma base, and the absorbance was read on an automated plate reader at a wavelength of 515 nm.” left out

[11] = test system: UACC-62; assay: NCI cancer cell line panel screening (SRB), melanoma cell line UACC-62; assay type: cell-based; conditions: Homo sapiens, read-out: IC50 against melanoma cell line in vitro
Procedure: as §1, §2

Chain of B-RAF (P15056 whole entry): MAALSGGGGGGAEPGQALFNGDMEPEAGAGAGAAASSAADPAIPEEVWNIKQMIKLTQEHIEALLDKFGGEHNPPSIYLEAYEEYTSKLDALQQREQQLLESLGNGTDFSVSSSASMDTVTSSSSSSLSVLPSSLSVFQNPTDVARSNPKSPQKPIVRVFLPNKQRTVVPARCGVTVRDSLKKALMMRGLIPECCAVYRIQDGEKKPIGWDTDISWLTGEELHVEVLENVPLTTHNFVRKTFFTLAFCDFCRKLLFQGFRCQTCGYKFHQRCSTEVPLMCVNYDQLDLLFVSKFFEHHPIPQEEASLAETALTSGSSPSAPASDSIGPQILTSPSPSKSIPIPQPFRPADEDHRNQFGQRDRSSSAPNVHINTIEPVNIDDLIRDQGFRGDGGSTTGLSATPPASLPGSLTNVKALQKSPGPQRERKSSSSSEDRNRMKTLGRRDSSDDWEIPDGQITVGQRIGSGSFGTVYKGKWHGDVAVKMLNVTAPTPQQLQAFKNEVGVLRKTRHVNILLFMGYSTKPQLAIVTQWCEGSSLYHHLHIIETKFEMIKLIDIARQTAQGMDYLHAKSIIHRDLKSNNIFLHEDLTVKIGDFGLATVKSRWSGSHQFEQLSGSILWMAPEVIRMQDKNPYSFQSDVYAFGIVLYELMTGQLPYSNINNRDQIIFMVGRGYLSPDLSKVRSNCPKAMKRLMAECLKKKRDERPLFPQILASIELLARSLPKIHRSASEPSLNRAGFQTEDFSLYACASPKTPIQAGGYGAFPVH
Chain of V600E-B-RAF (P15056 whole entry V600E): as the sequence (P15056 whole entry) above, with V600E counted along it
Chain of C-RAF (P04049 306-648 Y340D/Y341D limits assumed): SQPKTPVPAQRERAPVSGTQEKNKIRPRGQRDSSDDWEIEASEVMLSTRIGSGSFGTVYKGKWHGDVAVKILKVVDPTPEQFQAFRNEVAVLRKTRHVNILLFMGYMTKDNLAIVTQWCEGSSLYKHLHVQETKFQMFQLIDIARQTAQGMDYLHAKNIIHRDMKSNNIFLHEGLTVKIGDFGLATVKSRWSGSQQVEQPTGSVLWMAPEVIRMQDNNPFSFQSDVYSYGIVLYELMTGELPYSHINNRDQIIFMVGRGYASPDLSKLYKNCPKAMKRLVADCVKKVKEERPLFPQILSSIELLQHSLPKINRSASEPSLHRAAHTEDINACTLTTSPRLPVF

IC50 [2] [nM]	IC50 [3] [nM]	IC50 [4] [nM]	SMILES	IC50 [1] [nM]	IC50 [5] [nM]	IC50 [6] [nM]	IC50 [7] [nM]	IC50 [8] [nM]	IC50 [9] [nM]	IC50 [10] [nM]	IC50 [11] [nM]
3.23	2.95	1.85	CN1CCN(CCNc2nccc(-c3c(-c4cccc(O)c4)nc4occn34)n2)S1(=O)=O [1II, 2-(2-((4-(6-(3-Hydroxylphenyl)imidazo[2,1-b]oxazol-5-yl)pyrimidin-2-yl)amino)ethyl)-5-methyl-1,2,5-thiadiazolidine 1,1-dioxide]	60	–	–	–	–	–	–	–
4.19	7.83	0.98	O=S(=O)(NCCCNc1nccc(-c2c(-c3cccc(O)c3)nc3sccn23)n1)c1ccc(F)cc1 [31III, 4-fluoro-N-(3-((4-(6-(3-hydroxylphenyl)imidazo[2,1-b]thiazol-5-yl)pyrimidin-2-yl)amino)propyl)benzenesulfonamide]	300	560	60	240	1100	50	1200	20
